ChEMBL document CHEMBL4715849, “Recent Progress in the Discovery of Antifungal Agents Targeting the Cell Wall” (J Med Chem, 2020)
≈ marks a conversion by molar mass, not a printed value.

Assays:
Cryptococcus neoformans [1] = test: Antifungal activity against Cryptococcus neoformans MY2062 incubated for 24 hrs by liquid microdilution assay; format: functional
Cryptococcus neoformans [2] = test: Antifungal activity against Cryptococcus neoformans MY2061 incubated for 24 hrs by liquid microdilution assay; format: functional
Aspergillus flavus = test: Antifungal activity against Aspergillus flavus MF383 incubated for 24 hrs by liquid microdilution assay; format: functional
[3] = Inhibition of Candida albicans MY1055 1,3-beta-D-glucan synthase assessed as reduction in glucan synthesis by measuring decrease in incorporation of [14C]glucose preincubated for 30 mins followed by pulse-labelling with [U-14C]D-glucose for 30 mins by autoradiography
Candida albicans [4] = test: Antifungal activity against Candida albicans MY1055 incubated for 24 hrs by liquid microdilution assay; format: functional
Candida albicans [5] = test: Antifungal activity against Candida albicans MY2301 incubated for 24 hrs by liquid microdilution assay; format: functional
Nakaseomyces glabratus [6] = test: Antifungal activity against Candida glabrata CLY574 incubated for 24 hrs by liquid microdilution assay; format: functional
Nakaseomyces glabratus [7] = test: Antifungal activity against Candida glabrata MY1381 incubated for 24 hrs by liquid microdilution assay; format: functional
[8] = system: Meyerozyma guilliermondii; test: Antifungal activity against Candida guilliermondii CLY308 incubated for 24 hrs by liquid microdilution assay; format: functional
[9] = system: Meyerozyma guilliermondii; test: Antifungal activity against Candida guilliermondii CLY346 incubated for 24 hrs by liquid microdilution assay; format: functional
Aspergillus fumigatus = test: Antifungal activity against Aspergillus fumigatus MF5668 assessed as inhibition of normal hyphal growth; format: functional; conditions: time 24 hrs, read-out: MEC
Candida albicans [10] = test: Antifungal activity against Candida albicans; format: functional

CC(=O)O[C@@H]1C[C@]23C4=CC[C@@]5(C)[C@H](C(=O)O)[C@@](C)([C@H](C)C(C)C)CC[C@]5(C)[C@H]4CC[C@H]2[C@@](C)(COC3O)[C@H]1O[C@@H]1O[C@H](CO)[C@@H](O)[C@H](O)[C@H]1O (some centres not stated) [ENFUMAFUNGIN]
MIC (Cryptococcus neoformans [1]): > 64 µg/mL | MIC (Cryptococcus neoformans [2]): > 64 µg/mL | MIC (Aspergillus flavus): ≤ 0.03 µg/mL | IC50 [3]: 0.05 µg/mL (≈ 0.0705 µM) | MIC (Candida albicans [4]): 0.25 µg/mL (≈ 0.353 µM) | MIC (Candida albicans [5]): 0.5 µg/mL (≈ 0.705 µM) | MIC (Nakaseomyces glabratus [6]): 1 µg/mL (≈ 1.41 µM) | MIC (Nakaseomyces glabratus [7]): 1 µg/mL (≈ 1.41 µM) | MIC [8]: 1 µg/mL (≈ 1.41 µM) | MIC [9]: 2 µg/mL (≈ 2.82 µM) | minimal effective concentration (Aspergillus fumigatus): ≤ 0.03 µg/mL | MIC (Candida albicans [10]): 0.2 µg/mL (≈ 0.282 µM)
